Measured values reported in patent US8507440B2, “Protein kinase C peptides for use in withdrawal” (The Board of Trustees of the Leland Stanford Junior …, priority 2002, dated 2013).
Ends that are not written are not given here.

Columns and labels:
[1] = test system: postnatal day 7 rats; assay: naloxone-precipitated morphine withdrawal, mechanical threshold and thermal paw withdrawal latency in vivo; design: species or system rat; details: 10 μM in 5 μl intrathecally prior to morphine 1 mg/kg s.c.; naloxone 0.25 mg/kg 30 min after morphine
Description: In vivo studies on opiate withdrawal allodynia and hyperalgesia were conducted using postnatal day 7 rats. As described in Example 2, postnatal day 7 rats were given morphine subcutaneously followed 30 minutes later by naloxone or saline. Mechanical threshold using von Frey filaments to produce the flexion withdrawal response of the hind paw and thermal stimulation to measure the paw withdrawal latency were measured as described in Example 2.
FIG. 5A illustrates a treatment protocol where rat pups were given a PKC antagonist intrathecally (e.g., directly into the cerebrospinal fluid surrounding the spinal cord) prior to subcutaneous morphine delivery. Thirty minutes after morphine delivery, naloxone was administered, followed by mechanical allodynia and thermal hyperalgesia testing (as described in Example 2).
Postnatal day 7 Sprague-Dawley rats (Charles River Laboratories) of both sexes were used. For all behavioural experiments rats were maintained at nesting temperature with overhead heatlamps.
(§1) To measure mechanical thresholds, rats were placed on an elevated wire mesh (2 mm openings). Von Frey hairs (Stoelting Co., WoodDale, Ill., USA) were used to elicit a cutaneous flexion withdrawal response as described by Fitzgerald et al. (Fitzgerald M., et al., PAIN […] INFANTS, CHILDREN AND ADOLESCENTS; Schetchter and Yaster, Eds., pp 11-32, Williams and Williams (Baltimore, Md.) (1993). Von Frey hairs of increasing intensity were applied three times to the plantar surface of the left hind paw until a paw withdrawal was elicited. The lowest intensity Von Frey hair required to produce a withdrawal reflex was recorded as the response threshold to a low-intensity mechanical stimulus.
Thermal paw withdrawal latencies were measured using the Ugo Basile Plantar Testing apparatus (Stoelting Co., WoodDale, Ill., USA). Briefly, postnatal day 7 rats were placed under inverted Plexiglas enclosures and the plantar surface of the left hindpaw was heated from below with the IR intensity of the lamp set at 30. Two baseline thermal response latency measures were collected prior to morphine administration with a cut-off of 20 seconds enlisted to prevent tissue damage.
Postnatal day 7 rats were administered 1 mg/kg morphine sulfate (Sigma) subcutaneously in 50 μl saline. Mechanical thresholds were measured 15 minutes later to establish analgesia. Rats were returned to their dam. At 30 or 120 minutes post morphine, rats were administered 0.25 mg/kg naloxone (Sigma) subcutaneously in 50 μl saline. Mechanical thresholds and thermal paw withdrawal latencies were measured in 10 minute intervals. Tat conjugated peptide inhibitors specific to the ε (εV1-2; SEQ ID NO:1, 10 μM) and γ ([…]; SEQ ID NO:2, 10 μM) isoforms of PKC, Tat carrier (10 μM), or saline were administered in 5 μl volumes intrathecally via direct lumbar puncture using a sterile 29 gauge 3/10 cc insulin syringe in rats lightly anesthetized with halothane. To allow for complete recovery from anesthetic, animals were administered peptides or control solutions 30 minutes prior to naloxone.
An unpaired T-test was used to determine the significance of post-naloxone measures from baseline measures. Significance between treatment groups for PKC inhibitor studies both in vivo and in vitro was determined by one way analysis of variance (ANOVA) followed by a post-hoc Bonferroni analysis. P-values<0.05 were considered significant. All statistical analysis was done with GraphPad Prism version 3.02.

[2] = test system: postnatal day 7 rats; assay: natural morphine withdrawal, mechanical allodynia and thermal hyperalgesia in vivo; design: species or system rat; details: 10 μM intrathecally 2.5 hours after morphine 1 mg/kg; p<0.05 versus Tat carrier or saline
Description: Another study was performed to investigate the roles of PKC isozymes in natural withdrawal, which more closely resembles the clinical setting in addictive sequela. In this study, postnatal day 7 rats were given a single injection of morphine (1 mg/kg) and allowed to undergo natural withdrawal, i.e., naloxone was not administered to precipitate withdrawal. The treatment protocol is shown in FIG. 6A, where 2.5 hours after morphine delivery, εV1-2 or γV5-3 peptide inhibitors were administered intrathecally. Mechanical allodynia and thermal hyperalgesia were evaluated at hourly intervals according to the procedure described in Example 2.
as §1, with “stimulus. […]” for “stimulus.”

Q: What does the source list for “RLVLAS (also: Tat peptide conjugate; listed as Homo sapiens) [γV5-3]”?
A: block of naloxone-precipitated morphine withdrawal allodynia and hyperalgesia [1]: had a smaller blocking effect; mechanical allodynia and thermal hyperalgesia during natural withdrawal from morphine [2]: attenuated mechanical allodynia and thermal hyperalgesia
